Laboratory results taken from patent publication US6562844B2, “Oxazolidinone combinatorial libraries, compositions and methods of preparation” (Pharmacia & Upjohn Company, priority 1998, dated 2003).
Values after ≈ are worked out from the molar mass of the structure shown.

Tested on: S. aureus
Test: Antimicrobial activity MIC, microdilution whole cell assay, S. aureus
Assay type: cell-based
Conditions: Staphylococcus aureus; standard whole cell assay; read-out: MIC against S. aureus
Description: Assay Protocol for Antimicrobial Activity. Minimum inhibitory concentrations (MICs) were determined using the microdilution method in 96-well format plates. Compounds were suspended in DMSO at 5 or 10 mg/ml and stored at 4° C. until used. They were diluted in Mueller-Hinton Broth (MHB) or Trypticase Soy Broth (TSB) and used for MIC determination. The range of concentrations tested was 64-0.0625 μg/ml final concentration using a two-fold dilution system.
The inoculum was prepared from cells grown on Trypticase Soy Agar (TSA) and incubated overnight at 35° C., 5 to 10 colonies were used to inoculate MHB or TSB broths, and the culture was incubated overnight at 35° C. The overnight culture was diluted 1:10, incubated for one hour at 35° C., diluted to the appropriate inoculum size and applied to the wells containing broth and test compound. Inoculum sizes were 1×10^5 to 5×10^5 CFU/ml. Strains used included P. aeruginosa VPAE1001, E. faecium V VEFA1001, E. faecium VanA VEFA1002, S. aureus VSAU1003, S. aureus MRSA VSAU1004, E. coli VEC05, and E. coli (arc-) VEC05.
Plates were incubated at 35° C. for 48 hours and MIC were recorded after 18 hours of incubation, for bacteria, and 48 for yeasts.

`CON=Cc1ccc(/C=C/C(=O)NC[C@H]2CN(c3ccc(C(N)=O)c(F)c3)C(=O)O2)cc1` showed an MIC of about 0.5 µg/mL (≈ 1.14 µM).
